{"source": "patent US20150335696A1", "about": "“METHODS OF DEGRADING AGEs AND USES THEREOF” (ARKRAY, Inc., priority 2014, published 2015)", "test": "AGEs-degrading activity: cleavage of AGEs crosslink model substance PPD, released benzoic acid measured by HPLC", "format": "biochemical", "method": "In the present example, AGEs-degrading activities of plant extracts were evaluated with 1-phenyl-1,2-propanedione (PPD) as an index.\nThe AGEs-degrading activity was evaluated by measuring the cleavage reaction of crosslinks in AGEs. Specifically, the evaluation was carried out in the following manner on the basis of the method described in Vasan et al. (Vasan S, et al., An agent cleaving glucose-derived protein crosslinks in vitro and in vivo. 1996. Nature; 382: pp. 275-278).\nAs a model substance for crosslinks in AGEs, 1-phenyl-1,2-propanedione (PPD) was used. A degradation reaction was caused by each extract sample with PPD as a substrate. More specifically, a reaction solution having the following composition was obtained by mixing the components in an Eppendorf tube, and the resultant mixture was incubated at 37° C. for 8 hours (n=3). […] The amount of benzoic acid released by the degradation of PPD in the supernatant was measured by HPLC carried out under the following conditions. Also, the amount of benzoic acid inherently contained in the extract sample was measured by HPLC carried out under the same conditions. Furthermore, as a positive control regarding the cleavage of crosslinks, the amount of released benzoic acid was measured in the same manner, except that 500 μL of 10 mmol/L phenacylthiazolium bromide (PTB) was used instead of the extract sample. […]"}
{"compound": "O=C(C[n+]1ccsc1)c1ccccc1.[Br-]", "note": "[PTB, phenacylthiazolium bromide]", "values": [{"measurement": "Relative activity Mean ± SD (%)", "setting": "AGEs crosslink cleavage ratio relative to positive control PTB = 100%", "result": 100.0, "unit": "%"}, {"measurement": "AGEs crosslink cleavage ratio Mean ± SD (%)", "setting": "PPD substrate, 37° C. for 8 hours, n=3, molar benzoic acid produced / molar PPD (B/P)", "result": "38.2 ± 0.7", "unit": "%"}]}
